Assay results published in PubChem BioAssay (NCI).
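Following 48 hours of exposure in 96-well plates, responses at five concentrations were used to interpolate endpoints linearly. GI50 marks 50% less growth. TGI marks complete inhibition of growth.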

Key:
Test in all cases: DTP human tumour cell line panel, 48 h
HCT-15 colon = test system: HCT-15 colon
MDA-MB-231 breast = test system: MDA-MB-231 breast
BT-549 breast = test system: BT-549 breast
OVCAR-8 ovarian = test system: OVCAR-8 ovarian
IGROV1 ovarian = test system: IGROV1 ovarian
MOLT-4 leukemia = test system: MOLT-4 leukemia
K-562 leukemia = test system: K-562 leukemia
CCRF-CEM leukemia = test system: CCRF-CEM leukemia
SR leukemia = test system: SR leukemia
NCI-H23 lung = test system: NCI-H23 lung
UACC-257 melanoma = test system: UACC-257 melanoma
786-0 renal = test system: 786-0 renal
NCI-H460 lung = test system: NCI-H460 lung
KM12 colon = test system: KM12 colon
OVCAR-4 ovarian = test system: OVCAR-4 ovarian
TK-10 renal = test system: TK-10 renal
SF-268 CNS = test system: SF-268 CNS
SK-MEL-2 melanoma = test system: SK-MEL-2 melanoma
HS 578T breast = test system: HS 578T breast
A549 NSCLC = test system: A549 NSCLC
EKVX NSCLC = test system: EKVX NSCLC
SNB-75 CNS = test system: SNB-75 CNS
U251 CNS = test system: U251 CNS
NCI-H522 lung = test system: NCI-H522 lung
OVCAR-3 ovarian = test system: OVCAR-3 ovarian
T-47D breast = test system: T-47D breast
OVCAR-5 ovarian = test system: OVCAR-5 ovarian
M14 melanoma = test system: M14 melanoma
LOX IMVI melanoma = test system: LOX IMVI melanoma
DU-145 prostate = test system: DU-145 prostate
HOP-92 NSCLC = test system: HOP-92 NSCLC
PC-3 prostate = test system: PC-3 prostate
COLO 205 colon = test system: COLO 205 colon
HCC-2998 colon = test system: HCC-2998 colon
CAKI-1 renal = test system: CAKI-1 renal
SW-620 colon = test system: SW-620 colon
A498 renal = test system: A498 renal
MALME-3M melanoma = test system: MALME-3M melanoma
SNB-19 CNS = test system: SNB-19 CNS
RPMI-8226 leukemia = test system: RPMI-8226 leukemia
SN12C renal = test system: SN12C renal
ACHN renal = test system: ACHN renal
SF-295 CNS = test system: SF-295 CNS
MCF7 breast = test system: MCF7 breast
SK-MEL-5 melanoma = test system: SK-MEL-5 melanoma
HT29 colon = test system: HT29 colon
MDA-MB-435 = test system: MDA-MB-435
RXF 393 renal = test system: RXF 393 renal
SF-539 CNS = test system: SF-539 CNS
UO-31 renal = test system: UO-31 renal
HCT-116 colon = test system: HCT-116 colon
NCI-H226 lung = test system: NCI-H226 lung
HOP-62 NSCLC = test system: HOP-62 NSCLC
SK-OV-3 ovarian = test system: SK-OV-3 ovarian
HL-60(TB) leukemia = test system: HL-60(TB) leukemia
NCI/ADR-RES ovarian = test system: NCI/ADR-RES ovarian
SK-MEL-28 melanoma = test system: SK-MEL-28 melanoma

With CCN1CCN(c2cc(C)nc(NCc3cc(Nc4ccnc5cc(Cl)ccc45)ccc3F)n2)CC1 the GI50 (HCT-15 colon) was 2.19 µM, the TGI (HCT-15 colon) was 11.7 µM and the GI50 (MDA-MB-231 breast) was 2.02 µM. For the same molecule, the TGI (MDA-MB-231 breast) was 5.99 µM, the GI50 (BT-549 breast) was 5.36 µM and the TGI (BT-549 breast) was 21.8 µM. The GI50 (OVCAR-8 ovarian) was 4.11 µM, the TGI (OVCAR-8 ovarian) was > 100 µM and the GI50 (IGROV1 ovarian) was 3.31 µM. The TGI (IGROV1 ovarian) was 34.1 µM, the GI50 (MOLT-4 leukemia) was 2.34 µM and the TGI (MOLT-4 leukemia) was > 100 µM. For the same molecule, the GI50 (K-562 leukemia) was 1.04 µM, the TGI (K-562 leukemia) was > 100 µM and the GI50 (CCRF-CEM leukemia) was 2.55 µM. The TGI (CCRF-CEM leukemia) was > 100 µM, the GI50 (SR leukemia) was 2.14 µM and the TGI (SR leukemia) was 9.3 µM. The GI50 (NCI-H23 lung) was 5.79 µM, the TGI (NCI-H23 lung) was > 100 µM and the GI50 (UACC-257 melanoma) was 2.17 µM. It also gave a TGI (UACC-257 melanoma) of 4.33 µM, a GI50 (786-0 renal) of 2.07 µM and a TGI (786-0 renal) of 5.88 µM. It also gave a GI50 (NCI-H460 lung) of 2.83 µM, a TGI (NCI-H460 lung) of 12.1 µM and a GI50 (KM12 colon) of 5.3 µM. The TGI (KM12 colon) was > 100 µM, the GI50 (OVCAR-4 ovarian) was 2.08 µM and the TGI (OVCAR-4 ovarian) was > 100 µM. The GI50 (TK-10 renal) was 18.8 µM, the TGI (TK-10 renal) was 45.4 µM and the GI50 (SF-268 CNS) was 4.09 µM. The TGI (SF-268 CNS) was 40 µM, the GI50 (SK-MEL-2 melanoma) was 2.53 µM and the TGI (SK-MEL-2 melanoma) was 6.52 µM. For the same molecule, the GI50 (HS 578T breast) was 5.34 µM, the TGI (HS 578T breast) was 50.6 µM and the GI50 (A549 NSCLC) was 5.1 µM. The TGI (A549 NSCLC) was > 100 µM, the GI50 (EKVX NSCLC) was 5.45 µM and the TGI (EKVX NSCLC) was > 100 µM. It also gave a GI50 (SNB-75 CNS) of 10.5 µM, a TGI (SNB-75 CNS) of 30.8 µM and a GI50 (U251 CNS) of 3.28 µM. It also gave a TGI (U251 CNS) of 12.6 µM, a GI50 (NCI-H522 lung) of 7.21 µM and a TGI (NCI-H522 lung) of 36 µM. The GI50 (OVCAR-3 ovarian) was 2.94 µM, the TGI (OVCAR-3 ovarian) was 11.8 µM and the GI50 (T-47D breast) was 1.42 µM. For the same molecule, the TGI (T-47D breast) was 4.31 µM, the GI50 (OVCAR-5 ovarian) was 1.67 µM and the TGI (OVCAR-5 ovarian) was 17.7 µM. The GI50 (M14 melanoma) was 1.72 µM, the TGI (M14 melanoma) was 3.4 µM and the GI50 (LOX IMVI melanoma) was 1.74 µM. For the same molecule, the TGI (LOX IMVI melanoma) was 3.6 µM, the GI50 (DU-145 prostate) was 2.74 µM and the TGI (DU-145 prostate) was 42.3 µM. For the same molecule, the GI50 (HOP-92 NSCLC) was 2.58 µM, the TGI (HOP-92 NSCLC) was 19.4 µM and the GI50 (PC-3 prostate) was 5.02 µM. The TGI (PC-3 prostate) was 69.5 µM, the GI50 (COLO 205 colon) was 0.897 µM and the TGI (COLO 205 colon) was 2.81 µM. It also gave a GI50 (HCC-2998 colon) of 2.59 µM, a TGI (HCC-2998 colon) of 31.3 µM and a GI50 (CAKI-1 renal) of 2.82 µM. It also gave a TGI (CAKI-1 renal) of 17.1 µM, a GI50 (SW-620 colon) of 2.32 µM and a TGI (SW-620 colon) of 15.1 µM. It also gave a GI50 (A498 renal) of 1.89 µM, a TGI (A498 renal) of 8.05 µM and a GI50 (MALME-3M melanoma) of 1.95 µM. The TGI (MALME-3M melanoma) was 3.91 µM, the GI50 (SNB-19 CNS) was 3.71 µM and the TGI (SNB-19 CNS) was > 100 µM. For the same molecule, the GI50 (RPMI-8226 leukemia) was 2.13 µM, the TGI (RPMI-8226 leukemia) was 8.72 µM and the GI50 (SN12C renal) was 4.48 µM. The TGI (SN12C renal) was 27 µM, the GI50 (ACHN renal) was 2.89 µM and the TGI (ACHN renal) was 11.3 µM. For the same molecule, the GI50 (SF-295 CNS) was 2.05 µM, the TGI (SF-295 CNS) was 5.96 µM and the GI50 (MCF7 breast) was 0.302 µM. It also gave a TGI (MCF7 breast) of 16.9 µM, a GI50 (SK-MEL-5 melanoma) of 1.55 µM and a TGI (SK-MEL-5 melanoma) of 2.99 µM. For the same molecule, the GI50 (HT29 colon) was 0.957 µM, the TGI (HT29 colon) was 5.32 µM and the GI50 (MDA-MB-435) was 2.22 µM. For the same molecule, the TGI (MDA-MB-435) was 5.99 µM, the GI50 (RXF 393 renal) was 1.86 µM and the TGI (RXF 393 renal) was 4.19 µM. For the same molecule, the GI50 (SF-539 CNS) was 1.72 µM, the TGI (SF-539 CNS) was 3.42 µM and the GI50 (UO-31 renal) was 1.61 µM. It also gave a TGI (UO-31 renal) of 3.89 µM, a GI50 (HCT-116 colon) of 1.2 µM and a TGI (HCT-116 colon) of 4.1 µM. For the same molecule, the GI50 (NCI-H226 lung) was 15.4 µM, the TGI (NCI-H226 lung) was 48.9 µM and the GI50 (HOP-62 NSCLC) was 3.59 µM. The TGI (HOP-62 NSCLC) was 24.1 µM, the GI50 (SK-OV-3 ovarian) was 27.6 µM and the TGI (SK-OV-3 ovarian) was 69.3 µM. For the same molecule, the GI50 (HL-60(TB) leukemia) was 2.18 µM, the TGI (HL-60(TB) leukemia) was 22.1 µM and the GI50 (NCI/ADR-RES ovarian) was 5.03 µM. For the same molecule, the TGI (NCI/ADR-RES ovarian) was > 100 µM, the GI50 (SK-MEL-28 melanoma) was 1.84 µM and the TGI (SK-MEL-28 melanoma) was 3.71 µM.
